From paper PMC9944328 (Nature Communications, 2023)

Legend:
Assay in all cases: Bystander BRET endosomal trafficking (β-arrestin 1-Nluc, FYVE-mVenus), HEK293 (SSTR2 mutants);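 also: Read-out is the BRET ratio between Nluc-fused β-arrestin 1 and the early endosome marker FYVE-mVenus, measured after ligand addition with coelenterazine h as substrate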;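 as to Bottom: percent of maximal wild-type response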;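 as to Span: percent of maximal wild-type response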;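 as to Top: percent of maximal wild-type response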
[1] = target: SSTR2 mutants (Homo sapiens, UniProt P30874, R140A); conditions: Best-fit values
Procedure: (§1) Wild-type or mutant SSTR2, β-arrestin 1-Nluc and FYVE-mVenus were co-transfected in HEK293 cells at a ratio of 1:0.5:4 on six-well plates. The next day, the transfected cells were plated on white 96-well and incubated overnight, and then cells were incubated with 90 µL HBSS containing 20 mM HEPES and coelenterazine h (5 µM) at room temperature for 40 min. After incubation, ligand was added and the signal was measured using the Synergy H1 microplate reader (BioTek) to determine a BRET ratio.

[2] = target: SSTR2 mutants (Homo sapiens, UniProt P30874, F265A); conditions: HEK293
Procedure: as §1

[3] = target: SSTR2 mutants (Homo sapiens, UniProt P30874, Y312A); conditions: Best-fit values
Procedure: as §1

[4] = system: SSTR2 mutants
Procedure: as §1

[5] = target: SSTR2 mutants (Homo sapiens, UniProt P30874, I130A); conditions: HEK293
Procedure: as §1

[6] = target: SSTR2 mutants (Homo sapiens, UniProt P30874, I284A); conditions: for Bottom: Best-fit values
Procedure: as §1

[7] = target: SSTR2 mutants (Homo sapiens, UniProt P30874, K291A); conditions: for Bottom: best-fit
Procedure: as §1

[8] = target: SSTR2 mutants (Homo sapiens, UniProt P30874, W269A); conditions: for Bottom: Best-fit values
Procedure: as §1

[9] = target: SSTR2 mutants (Homo sapiens, UniProt P30874, P220A); conditions: for Bottom: Best-fit values
Sequence of SSTR2 mutants (Homo sapiens, UniProt P30874, P220A) (P30874 whole entry P220A): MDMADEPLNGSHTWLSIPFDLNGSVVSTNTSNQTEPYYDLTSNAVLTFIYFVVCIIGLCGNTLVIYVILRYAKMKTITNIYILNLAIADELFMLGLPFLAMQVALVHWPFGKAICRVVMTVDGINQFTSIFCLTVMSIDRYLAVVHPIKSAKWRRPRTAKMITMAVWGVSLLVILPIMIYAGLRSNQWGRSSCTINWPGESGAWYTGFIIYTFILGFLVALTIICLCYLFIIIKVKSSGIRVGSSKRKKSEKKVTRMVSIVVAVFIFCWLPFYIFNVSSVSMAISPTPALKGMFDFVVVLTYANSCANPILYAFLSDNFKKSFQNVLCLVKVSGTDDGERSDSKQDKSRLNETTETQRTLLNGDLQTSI
Procedure: as §1

Sequence of SSTR2 mutants (Homo sapiens, UniProt P30874, W269A) (P30874 whole entry W269A): as the sequence (P30874 whole entry P220A) above, with A220P, W269A counted along it
Sequence of SSTR2 mutants (Homo sapiens, UniProt P30874, K291A) (P30874 whole entry K291A): as the sequence (P30874 whole entry P220A) above, with A220P, K291A counted along it
Sequence of SSTR2 mutants (Homo sapiens, UniProt P30874, I284A) (P30874 whole entry I284A): as the sequence (P30874 whole entry P220A) above, with A220P, I284A counted along it
Sequence of SSTR2 mutants (Homo sapiens, UniProt P30874, R140A) (P30874 whole entry R140A): as the sequence (P30874 whole entry P220A) above, with R140A, A220P counted along it
Sequence of SSTR2 mutants (Homo sapiens, UniProt P30874, Y312A) (P30874 whole entry Y312A): as the sequence (P30874 whole entry P220A) above, with A220P, Y312A counted along it
Sequence of SSTR2 mutants (Homo sapiens, UniProt P30874, F265A) (P30874 whole entry F265A): as the sequence (P30874 whole entry P220A) above, with A220P, F265A counted along it
Sequence of SSTR2 mutants (Homo sapiens, UniProt P30874, I130A) (P30874 whole entry I130A): as the sequence (P30874 whole entry P220A) above, with I130A, A220P counted along it

C[C@@H](O)[C@@H]1NC(=O)[C@H](CCCCN)NC(=O)[C@@H](Cc2c[nH]c3ccccc23)NC(=O)[C@H](Cc2ccccc2)NC(=O)[C@@H](NC(=O)[C@H](N)Cc2ccccc2)CSSC[C@@H](C(=O)N[C@H](CO)[C@@H](C)O)NC1=O [octreotide] gave a Bottom ([1]; R140A-1) of 0.00472, a Bottom ([1]; R140A-2) of -1.087 and an Emax [2] of 56.1 ± 4.14%. It also gave a Bottom ([3]; Y312A-1) of 0.5637, a Bottom ([3]; Y312A-2) of -0.6682 and a LogEC50 ([4]; Best-fit values, I284A-1) of -6.559. It also gave a Top ([4]; Best-fit values, I284A-1) of 94.85, a LogEC50 ([4]; Best-fit values, I284A-2) of -7.171 and a Top ([4]; Best-fit values, I284A-2) of 92.19. For the same compound, the LogEC50 ([4]; Best-fit values, P220A-1) was -6.023, the Span ([4]; Best-fit values, P220A-1) was 31.36 and the Top ([4]; Best-fit values, P220A-1) was 20.27. It also gave a LogEC50 ([4]; Best-fit values, P220A-2) of -7.589, a Span ([4]; Best-fit values, P220A-2) of 32.52 and a Top ([4]; Best-fit values, P220A-2) of 39.01. It also gave a LogEC50 ([4]; Best-fit values, R140A-1) of -8.238, a Span ([4]; Best-fit values, R140A-1) of 48.38 and a Top ([4]; Best-fit values, R140A-1) of 48.39. The LogEC50 ([4]; Best-fit values, R140A-2) was -8.282, the Span ([4]; Best-fit values, R140A-2) was 47.34 and the Top ([4]; Best-fit values, R140A-2) was 46.25. For the same compound, the EC50 ([4]; Best-fit values, W269A-1) was 0.642 nM, the LogEC50 ([4]; Best-fit values, W269A-1) was -9.192 and the Span ([4]; Best-fit values, W269A-1) was 18.76. For the same compound, the Top ([4]; Best-fit values, W269A-1) was 18.02, the EC50 ([4]; Best-fit values, W269A-2) was 0.132 nM and the LogEC50 ([4]; Best-fit values, W269A-2) was -9.88. The Span ([4]; Best-fit values, W269A-2) was 17.57, the Top ([4]; Best-fit values, W269A-2) was 14.3 and the EC50 ([4]; Best-fit values, Y312A-1) was 10.2 nM. The LogEC50 ([4]; Best-fit values, Y312A-1) was -7.991, the Span ([4]; Best-fit values, Y312A-1) was 45.08 and the Top ([4]; Best-fit values, Y312A-1) was 45.64. It also gave an EC50 ([4]; Best-fit values, Y312A-2) of 10.3 nM, a LogEC50 ([4]; Best-fit values, Y312A-2) of -7.988 and a Span ([4]; Best-fit values, Y312A-2) of 40.73. For the same compound, the Top ([4]; Best-fit values, Y312A-2) was 40.06, the “Internalization of microswitch mutants” value ([4]; alanine substitution of microswitch residues) was “reduced receptor internalization” and the EC50 ([4]; best-fit, I284A-1, run 1) was 276 nM. For the same compound, the Span ([4]; best-fit, I284A-1, run 1) was 93.85, the EC50 ([4]; best-fit, I284A-2, run 2) was 67.5 nM and the Span ([4]; best-fit, I284A-2, run 2) was 82.28. The EC50 ([4]; best-fit, K291A-1, run 1) was 1610 nM, the LogEC50 ([4]; best-fit, K291A-1, run 1) was -5.793 and the Span ([4]; best-fit, K291A-1, run 1) was 78.24. It also gave a Top ([4]; best-fit, K291A-1, run 1) of 68.05, an EC50 ([4]; best-fit, K291A-2, run 2) of 615 nM and a LogEC50 ([4]; best-fit, K291A-2, run 2) of -6.211. For the same compound, the Span ([4]; best-fit, K291A-2, run 2) was 78.94, the Top ([4]; best-fit, K291A-2, run 2) was 80.99 and the Emax [5] was 68.2 ± 4.05%. For the same compound, the Bottom ([6]; I284A-1) was 1.002, the Bottom ([6]; I284A-2) was 9.91 and the Emax ([6]; HEK293) was 94.8 ± 4.62%. It also gave an Emax ([7]; HEK293) of 68 ± 8.22%, a Bottom ([7]; K291A-1, run 1) of -10.2 and a Bottom ([7]; K291A-2, run 2) of 2.053. It also gave a Bottom ([8]; W269A-1) of -0.7468, a Bottom ([8]; W269A-2) of -3.268 and an Emax ([8]; HEK293) of 14.5 ± 3.19%. It also gave a Bottom ([9]; P220A-1) of -11.09, a Bottom ([9]; P220A-2) of 6.493 and an Emax ([9]; HEK293) of 20.3 ± 8.01%.
